Literature values in paper PMC9069326 (RSC Advances, 2019).

Molecular target: Gal-3 (Homo sapiens, UniProt P17931)
Conditions: cited from earlier work

Sequence of Gal-3 (P17931 whole entry, species assumed): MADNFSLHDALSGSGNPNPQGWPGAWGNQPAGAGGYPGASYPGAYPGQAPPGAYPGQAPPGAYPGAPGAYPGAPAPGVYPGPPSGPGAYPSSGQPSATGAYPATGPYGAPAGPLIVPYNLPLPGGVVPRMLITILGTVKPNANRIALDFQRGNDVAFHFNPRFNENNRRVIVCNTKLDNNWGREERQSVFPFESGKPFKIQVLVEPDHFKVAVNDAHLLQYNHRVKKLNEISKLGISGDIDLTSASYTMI

Molecule	Kd
O=C[C@H](O)[C@@H](O)[C@@H](O)[C@H](O)CO [Gal, β-Galactose]	~10 mM
Galβ1-4GlcNAc [LacNAc]	0.07 mM
